The source of these data is a melting point compilation (Tetko et al.; mined from patent text by program, amines drawn as free bases though some values may be those of a salt).

Molecules are shown by their SMILES.

In general, melting point refers to the temperature, or range, at which the solid turns liquid. `CCOC(=O)C1=C(C)NC(C)=C(C(=O)OC2CCCCC2)C1c1cccc([N+](=O)[O-])c1` (stereo not given) returned a melting point of 135 °C.

`CC(=O)OCCSCCCC(=O)NC/C=C\COc1cc(CN2CCCCC2)ccn1` displayed a melting point of 36 to 40 °C.

The compound `O=[N+]([O-])c1ccc2c(c1)CN(C(c1ccccc1)c1ccccc1)C2` came in with a melting point of 154 to 155 °C. Under `CCOC(=O)c1cnn2c1[nH]c(=O)c1cnc3c(cnn3CC)c12` stands 263 to 265 °C. As for `O=C(c1ccc(S)cc1)c1cccc([N+](=O)[O-])c1`, the figure is 114 °C; as for `COc1ccc(C(O)(C2CC2)C2CC2)c2c1nc1n2CCCN1c1ccc(Cl)cc1Cl`, 219 to 220 °C; as for `OCCN1CCN(c2cc(Sc3ccc(Cl)cc3)nc(-c3ccccc3)n2)CC1`, 118 to 120 °C. As for `CN(CCCC(N)=O)Cc1ccc(Cl)cc1`, the figure is 62 to 64 °C; as for `Cc1cc(-c2ccc(Cl)c(Cl)c2)nc(-c2ccnc(-c3ccc(S(N)(=O)=O)s3)c2)n1`, 267 °C; as for `CC(C)C(=O)NC1=NC(=CCC(=O)Nc2ccc(Cl)cc2)CS1`, 112 to 114 °C. As to `COC(=O)c1cc(O)cc(Cl)c1`, the melting point is 133 to 135 °C. As for `CC(C)N(C[C@@H]1CCC[C@H](CN(C(=O)Nc2ccc(N(C)C)cc2)C(C)C)C1)C(=O)Nc1ccc(N(C)C)cc1`, the figure is 139 to 141 °C; as for `OCCOc1ccc(-c2nc(-c3ccc(OCCO)cc3O)nc(-c3ccc(OCCO)cc3O)n2)c(O)c1`, 195 °C; as for `Cc1cc(C(=O)O)cc2c1[nH]c1ccccc12`, above 240 °C.

Compound `COc1ccc2cc(Br)ccc2c1[N+](=O)[O-]` displayed a melting point of 151 to 152 °C. Under `O=C1C(=O)N(Cc2ccc(F)nc2)c2ccc(S(=O)(=O)N3CC[C@H]3COc3ccccc3)cc21` stands 177 to 178 °C; under `CCOC(=O)c1cc(F)ccc1[N+](=O)[O-]`, below 50 °C. The compound `CC#CCOc1ccc(S(=O)(=O)C2(C(=O)O)CCN(C(CC)CC)CC2)cc1` returned a melting point of 98 °C.

`CCc1cccc(C)c1CNc1nc(CO)cn2c(C)c(C)nc12` displayed a melting point of 166 °C. Under `CCOC(=O)c1cc(=NS(=O)(=O)c2ccccc2)c2c(Cl)cc(Cl)cc2[nH]1` stands 184 to 185 °C; under `Nc1ccc(CCn2cccn2)cc1`, 73 to 74 °C; under `O=C(O)Cc1ccc(F)cc1Sc1ccc([N+](=O)[O-])cc1`, 160 to 164 °C. With `CC(C)(C)c1ccc(CCOc2ncnc3ncccc23)cc1`, the melting point was 77 to 79 °C. `CCNC(=S)N1CCN([C@H](C)[C@](O)(Cn2cncn2)c2ccc(F)cc2F)CC1`: the melting point was 96 to 98 °C. As for `O=C(O)CCC1(c2cccc(Cl)c2)NC(=O)NC1=O` (stereo not given), the figure is 196 to 217 °C; as for `Cc1c(N)cccc1OC[C@@H]1CCCN1C(=O)OC(C)(C)C`, 110 °C. Under `CC(=O)Nc1cnc(-c2ccccc2)c(-c2ccc(=O)n(C(C)C)n2)c1` stands 207 to 208 °C; under `Cc1ccc(N2N=C(C(N)=O)NC2c2c(F)cccc2F)cc1COCC(F)(F)C(F)(F)F` (stereo not given), 182 to 185 °C; under `CCN(CC)C(=O)Nc1ccc2oc3c(c2c1)CCCC3`, 179 to 180 °C. As for `O=c1ccc2c(-c3ccco3)nccc2[nH]1`, the melting point is above 300 °C. As for `CCCc1nc2c(N)nc3cc(OCc4ccc(Cl)cc4)ccc3c2n1CC(C)C`, the figure is 215 to 217 °C; as for `CC(=O)Nc1c(I)c(C(=O)OCOC(=O)C(C)(C)C)c(I)c(N(C)C(C)=O)c1I`, 232 to 234 °C.

Consider `N=C(N)c1ccc(-c2ccc(N3CCN(CCC(=O)O)C3=O)cc2)cc1`, for which the melting point was above 200 °C.

Compound `O=C1c2ccccc2C(=O)N1C(Sc1ccccc1)c1ccccc1` (stereo not given) returned a melting point of 97 to 99 °C. As to `CCS(=O)(=O)C1(C(O)(Cn2cncn2)c2ccc(Cl)cc2)CC1` (stereo not given), the melting point worked out at 215 °C.
